From article PMC11134387, “Cancer-Stem-Cell Phenotype-Guided Discovery of a Microbiota-Inspired Synthetic Compound Targeting NPM1 for Leukemia” (JACS Au, 2024)
Entries after “also recorded” stand apart in the source; their conditions may differ.

How the values were obtained:
NPM1 = test: Western blot of NPM1 in OCI-AML3 cells; type: cell-based; details: for Densitometry values for NPM1: reduction: OCI-AML3, 10 μM
Method: We next studied the impact of UCM-13369 in the genes and/or expression levels of NPM1 and NPM1 C+ pathway components (Figure 4A), including the positive regulation of c-Myc[34] and the negative regulation of FBXW7 and the pro-apoptotic CASP8.[35] […] The inhibition of NPM1 was also observed in MOLM13 cells expressing WT NPM1 (Figure S1B).
Assay (Bio-Rad Labo rato ries, Hercules, CA, USA) and 20 µg of total protein s was loaded onto 10% SDS-PAGE gels followed by transfer onto a nitrocellulose membrane. Blots were incubated with primary antibodies α-NPM1 (Abcam ), α-M YC (Cel l Signaling), α-FBXW7 ( Abcam) and an ti-mouse or anti-rabbit secondary antibodies (BD). An antibody to β-actin was used to check for equivalent protei n loading. Membranes were developed by enhanced chemiluminescenc e (Clarity Weste rn ECL substrate; Bio-Rad Laboratories ).
Densitometry was performed with Image Lab software, normalized to the signal of β-actin, and r-normalized with the control.
Proteomic analysis. A supplementary table (Excel file) includes all the data of the proteomic analysis, showing all the proteins identified, not only those ablated in the treated population, but also those found with different expression levels in both populations under study, and even those that were not detected in the control population but were detected in the treated population. Follows the image of a Venn diagram showing the number of proteins detected in each of the pop ulations and the proteins that converg e […]
2.3. NPM1 protein studies
DNA constructs. For recombinant expression, pET28a(+) vectors encoding the native, N-end pentameric domain (residues 1- 130) and the C-end domain (residues 225- 294) constructs of NPM1 –all of which contained a N -terminal 6xHis tag– were available at the lab.4 Site directed mutagenesis was p erfo rmed by polymerase chain reaction (PCR) using the pET28a-NPM1 C-end WT vector to obtain the NPM1 C-end AML mutant construct (NPM1 C-end C+). The following primers were designed: 5’ – […]
(1 picture or pasted object on this page, not shown here)

[1] = system: human renal proximal tubule epithelial cells (hRPT Epi Cells); test: Dose-response viability in renal proximal tubule epithelial cells; type: cell-based; details: dose-response viability assay; listed as UCM-13369
Excerpt: Scale bar: 100 μm. (E ) Dose-response curve of UCM-13369 in human renal proximal

NPM1 C+ = test: Confocal microscopy of NPM1 subcellular localization in OCI-AML3 cells; type: cell-based; details: OCI-AML3, 10 μM
Method: To further elucidate the mechanism of action of UCM-13369, we studied the influence of the compound on the subcellular localization of the protein by confocal microscopy, using an Alexa Fluor-647-conjugated NPM1 primary antibody (Figure 4D).
Cells were plated onto glass coverslips or Greiner Bio-One μClear black 96-well plate (7.5 × 10^4 cells per well) and treated with compound UCM-13369 for 48 h. Then, cells were fixed with 4% paraformaldehyde for 15 min, permeabilized with 0.1% Triton X-100 for 30 min, and blocked in 5% bovine serum albumin for 1 h at rt. Incubation with primary antibodies against NPM1 (7H10B9, NOVUS Biologicals) was carried out overnight at 4 °C. Alexa Fluor-488-conjugated antimouse or antirabbit antibodies (Molecular Probes) were used for detection of the reported proteins by confocal microscopy. Nuclei were counterstained with 4′,6-diamidino-2-phenylindole (DAPI) bath. A total of 35 fields per well were acquired with ×40 magnification lens for those samples run in the Opera HCS system (PerkinElmer). Images were segmented using the DAPI staining and the coefficient of variation of NPM1 intensity per nucleus/cytoplasm was calculated using Definiens Developer XD software.

HCT-116 = test: Cytotoxic effect in colon tumor cell line (MTT); details: Homo sapiens, HCT-116, read-out: Viability (%) HCT-116, @5 µM (footnote d)
Method: The cytotoxic effect was determined in breast (MCF-7) and colon (HCT-116) tumor cell lines using MTT assays.
Cells were seeded at 3 × 10^4 cells/mL in 96-well plates. The test compound was diluted in PBS. […] Viability was evaluated by MTT or WST-1 and dose/response curves were performed.

OCI-AML3-ffLuc-GFP cells = test: AML xenograft mouse model (OCI-AML3-ffLuc-GFP in NSG mice); type: in vivo
Method: Based on the encouraging results obtained in ex vivo models of AML, we further assessed the therapeutic potential of the new NPM1 inhibitor in vivo. Prior to the evaluation of the compound in an animal model of AML, in vivo pharmacokinetic studies were addressed. Following a single intraperitoneal administration of UCM-13369 at a dose of 25 mg/kg, levels of 200–600 μg/L were detected in mouse peripheral blood up to 6 h (Figure 6A). Plasma protein binding of the compound in mouse serum was measured using an equilibrium dialysis assay, indicating a bound fraction of 83 ± 1%. Next, the efficacy of the compound was evaluated in immunodeficient mice after injection of OCI-AML3-ffLuc-GFP cells as an AML animal model.
An AML xenograft mouse model was used for the in vivo study of efficacy. Female 6- to 8-week-old NOD.Cg-Prkdcscid Il2rgtm1Wjl/SzJ (NSG) mice (Vivotecnia, Madrid, Spain) were inoculated intravenously by tail vein injection with OCI-AML3-ffLuc-GFP cells (1 × 10^6). Four days later, the mice were randomized into two groups of 10 animals: the first group received intraperitoneal injections of vehicle (0.9% saline solution) 5 days a week; the second group received intraperitoneal injections of 25 mg/kg or 50 mg/kg UCM-13369 five times weekly for 3 weeks. The mice were monitored for tumor burden, distribution, and engraftment every week by IVIS whole-body bioluminescence imaging. Bioimaging of MM burden in vivo was performed by IVIS Imaging system (Caliper Life Science). A solution of luciferin (D-luciferin monosodium salt, Thermo Fisher) in PBS was injected (150 mg/kg, ip), and luminescence signal was determined after 10 min. The data were analyzed using the Living Image 4.2 (Caliper Life Science) software.

[2] = system: primary HSCs from WT NPM1 AML patients; test: CD34+ liquid HSC short-term culture, WT NPM1 AML patients; type: cell-based; details: Homo sapiens, n = 3
Method: Considering the inhibitory capacity of UCM-13369 on AML cell lines (shown in Figure 3A), the therapeutic potential was assessed in primary CD34+ cells from AML patients. Two ex vivo models were used from AML patients and healthy donors: CD34+ liquid HSC (hematopoietic stem cell) culture as a short-term model and CFU-E (colony-forming unit–erythroid) as a midterm model.
The test compound was diluted in PBS. […]
Primary cells. 1x10^6/mL total mononuclear bone marrow cells (as source of CD34+ HSCs) of healthy donors and AML patients were used. They were cultured using Stem SpanTM supplement with pencillin/streptomycin (500 U/ml), TPO (10 µg/mL), SCF (10 µg/mL), FLT3 (10 µg/mL), IL-6 (10 µg/mL) and IL-3 (10 µg/mL). After 24 h fresh medium was added. After 72 h in maintenance cells were ready to start the assays. All cells wer e maintained at 37 °C in a humidified incubator in an atmosphere of 5% CO2. […]

In the case of `COc1ccc(C2Cc3[nH]c4ccccc4c3C(CCNCC3CC3)C2N)cc1` (centres unmarked) [4b, 4-{2-[(Cyclopropylmethyl)amino]ethyl}-2-(4-methoxyphenyl)-2,3,4,9-tetrahydro-1H-carbazol-3-amine], the “Densitometry values for NPM1: reduction” value (NPM1; 24 h) is reported as 50%, the “Densitometry values for NPM1: reduction” value (NPM1; 48 h) is reported as 70% and the “NPM1 levels (in words)” value (NPM1; OCI-AML3, qPCR and Western blot) is reported as “reduced levels”. The “Toxicity in hRPT Epi Cells (in words)” value [1] was “showed toxicity in kidney cells; also recorded: revealed toxicity”, the “Subcellular localization of NPM1 (in words)” value (NPM1 C+) was “reduction of the cytoplasmic form of the protein” and the viability at 5 µM (HCT-116) was 70%. The “Reduction in tumor mass (in words)” value (OCI-AML3-ffLuc-GFP cells; 25 mg/kg, data not shown) was “negligible”, the “Tumor cell infiltration of bone marrow, H&E staining (in words)” value (OCI-AML3-ffLuc-GFP cells; 50 mg/kg) was “less tumor cell infiltration” and the “Survival, treated vs untreated animals (in words)” value (OCI-AML3-ffLuc-GFP cells; 50 mg/kg, Kaplan-Meier, listed as UCM-13369) was “no significant differences; also recorded: no difference”. For the same compound, the “Tumor infiltration vs untreated group at end point (in words)” value (OCI-AML3-ffLuc-GFP cells; 50 mg/kg, bioluminescence) was “reduction of tumor infiltration” and the IC50 [2] was 3.77 µM.
